Source: US7816535B2, “Vinyl-phenyl derivatives for inflammation and immune-related uses” (Synta Pharmaceuticals Corp., priority 2006, dated 2010)
Where a name gives a salt, the structure may show the parent alone.

The compounds below were run on IL-2 production (assay: Inhibition of IL-2 production in PHA-activated Jurkat cells (ELISA)). Details: Homo sapiens, Jurkat, 20 h, PHA 2.5 μg/mL, IL-2 ELISA.
Assay type: cell-based
Description: Jurkat cells were placed in a 96 well plate (0.5 million cells per well in 1% FBS medium) then a test compound of this invention was added at different concentrations. After 10 minutes, the cells were activated with PHA (final concentration 2.5 μg/mL) and incubated for 20 hours at 37° C. under CO2. The final volume was 200 μL. Following incubation, the cells were centrifuged and the supernatants collected and stored at −70° C. prior to assaying for IL-2 production. A commercial ELISA kit (IL-2 Eli-pair, Diaclone Research, Besancon, France) was used to detect production of IL-2, from which dose response curves were obtained. The IC50 value was calculated as the concentration at which 50% of maximum IL-2 production after stimulation was inhibited versus a non-stimulation control.

| IC50 [nM] | SMILES |
| --- | --- |
| 300 | CCOC(=O)C1=C(c2ccc(NC(=O)c3c(F)cccc3F)cc2)CCC1 [Compound 30, 2-[4-(2,6-Difluoro-benzoylamino)phenyl]-cyclopent-1-enecarboxylic acid ethyl ester] |
| 97.1 | C=CC1=C(c2ccc(NC(=O)c3c(F)cccc3F)cc2)CCC1 [Compound 33, 2,6-Difluoro-N-[4-(2-vinyl-cyclopent-1-enyl)-phenyl]-benzamide] |
| 748 | CC1=C(c2ccc(NC(=O)c3ccncc3C)cc2)C[C@@H]([C@@](C)(O)CO)CC1 [Compound 9, N-(4-((S)-5-((R)-1,2-dihydroxypropan-2-yl)-2-methylcyclohex-1-enyl)phenyl)-3-methylisonicotinamide] |
| 235 | C=CCOC(=O)N1CCC(c2ccc(NC(=O)c3c(F)cccc3F)cc2)=C(C)C1 [Compound 54, 2,6-Difluoro-N-[4-(1-allyloxycarbonyl-3-methyl-1,2,5,6-tetrahydro-pyridin-4-yl)-phenyl]-benzamide] |
| 143 | CC1=C(c2ccc(NC(=O)c3scnc3Cl)cc2)CCCC1 [Compound 28, 4-Chloro-thiazole-5-carboxylic acid [4-(2-methyl-cyclohex-1-enyl)-phenyl]-amide] |
| 248 | COC(=O)N1CCC(C)=C(c2ccc(NC(=O)c3ccncc3F)cc2)C1 [Compound 45, N-[4-(1-methoxycarbonyl-4-methyl-1,2,5,6-tetrahydro-pyridin-3-yl)-phenyl]-3-fluoro-isonicotinamide] |
| 23 | CCOC(=O)N1CCC(C)=C(c2ccc(NC(=O)c3c(F)cccc3F)cc2)C1 [Compound 12, Ethyl 3-(4-(2,6-difluorobenzamido)phenyl)-4-methyl-5,6-dihydropyridine-1(2H)-carboxylate] |
| 44 | CC1=C(c2ccc(NC(=O)c3ccncc3F)cc2)CN(c2ncco2)CC1 [Compound 71, N-[4-(1-oxazol-2-yl-4-methyl-1,2,5,6-tetrahydro-pyridin-3-yl)-phenyl]-3-fluoro-isonicotinamide] |
| 153 | CC1=C(c2ccc(NC(=O)c3ccncc3C)cc2)CN(C(=O)OCc2ccccc2)CC1 [Compound 51, N-[4-(1-benzyloxycarbonyl-4-methyl-1,2,5,6-tetrahydro-pyridin-3-yl)-phenyl]-3-methyl-isonicotinamide] |
| 98.5 | CC1=C(c2ccc(NC(=O)c3c(F)cccc3F)cc2)CN(c2nc(C)co2)CC1 [Compound 80, 2,6-Difluoro-N-{4-[1-(4-methyl-oxazol-2-yl)-4-methyl-1,2,5,6-tetrahydro-pyridin-3-yl]-phenyl}-benzamide] |
| 84 | CC1=C(c2ccc(NC(=O)c3ccncc3F)cc2)CCCC1 [Compound 1, 3-Fluoro-N-[4-(2-methyl-cyclohex-1-enyl)-phenyl]-isonicotinamide] |
| 23.1 | O=C(Nc1ccc(C2=C(c3cnco3)CCCCC2)cc1)c1c(F)cccc1F [Compound 38] |
| 282 | CCOC(=O)C1=C(c2ccc(NC(=O)c3c(F)cccc3F)cc2)CCCC1 [Compound 99, N-[4-(2-ethyoxycarbonyl-cyclohex-1-enyl)-phenyl]-2,6-difluoro-benzamide] |
| 59.5 | CC1=C(c2ccc(NC(=O)c3c(F)cccc3F)cc2)CN(c2nc(C)c(C)o2)CC1 [Compound 82, 2,6-Difluoro-N-{4-[1-(4,5-dimethyl-oxazol-2-yl)-4-methyl-1,2,5,6-tetrahydro-pyridin-3-yl]-phenyl}-benzamide] |
| > 1000 | O=C(Nc1ccc(C2=C(CO)CCCCC2)cc1)c1c(F)cccc1F [Compound 36, 2,6-Difluoro-N-[4-(2-hydroxymethyl-cyclohept-1-enyl)-phenyl]-benzamide] |
| 35 | CC1=C(c2ccc(NC(=O)c3c(F)cccc3F)nc2)CN(c2nccs2)CC1 [Compound 72, 2,6-Difluoro-N-[5-(1-thiazol-2-yl-4-methyl-1,2,5,6-tetrahydro-pyridin-3-yl)-pyridin-2-yl]-benzamide, hydrochloride] |
| > 1000 | CC1=C(c2ccc(NC(=O)c3c(F)cccc3F)cc2)CN(C)CC1 [Compound 10, N-(4-(1,4-dimethyl-1,2,5,6-tetrahydropyridin-3-yl)phenyl)-2,6-difluorobenzamide] |
| 43.8 | CC(C)=C(c1ccccc1)c1ccc(NC(=O)c2c(F)cccc2F)cc1 [Compound 92, 2,6-Difluoro-N-[4-(2-methyl-1-phenyl-propenyl)-phenyl]-benzamide] |
| 226 | CC1=C(c2ccc(NC(=O)c3c(F)cccc3F)cc2)CCN(c2nccs2)C1 [Compound 91, 2,6-Difluoro-N-[4-(1-thiazol-2-yl-3-methyl-1,2,5,6-tetrahydro-pyridin-4-yl)-phenyl]-benzamide] |

| IC50 [nM] | SMILES |
| --- | --- |
| 11.9 | COC(=O)N1CCC(C(C)C)=C(c2ccc(NC(=O)c3c(F)cccc3F)cc2)C1 [Compound 42, 2,6-Difluoro-N-[4-(1-methoxycarbonyl-4-isopropyl-1,2,5,6-tetrahydro-pyridin-3-yl)-phenyl]-benzamide] |
| 16.2 | COC(=O)N1CCC(C)=C(c2ccc(NC(=O)c3c(F)cccc3F)cc2)C1 [Compound 49, 2,6-Difluoro-N-[4-(1-methoxycarbonyl-4-methyl-1,2,5,6-tetrahydro-pyridin-3-yl)-phenyl]-benzamide] |
| 456 | CC1=C(c2ccc(NC(=O)c3c(F)cccc3F)cc2)CN(C(N)=S)CC1 [Compound 73, 2,6-Difluoro-N-[4-(1-thiocarbamoyl-4-methyl-1,2,5,6-tetrahydro-pyridin-3-yl)-phenyl]-benzamide] |
| > 1000 | CC1=C(c2ccc(NC(=O)c3c(F)cccc3F)cc2)CN(C#N)CC1 [Compound 58, 2,6-Difluoro-N-[4-(1-cyano-4-methyl-1,2,5,6-tetrahydro-pyridin-3-yl)-phenyl]-benzamide] |
| 182 | CC1=C(c2ccc(NC(=O)c3c(F)cccc3F)cc2)CN(C(=O)C2CC2)CC1 [Compound 63, 2,6-Difluoro-N-[4-(1-cyclopropylcarbonyl-4-methyl-1,2,5,6-tetrahydro-pyridin-3-yl)-phenyl]-benzamide] |
| 156 | COc1ccccc1C(=C(C)C)c1ccc(NC(=O)c2c(F)cccc2F)cc1 [Compound 95, 2,6-Difluoro-N-{4-[2-methyl-1-(2-methoxy-phenyl)-propenyl]-phenyl}-benzamide] |
| > 1000 | O=C(Nc1ccc(C2=C(CO)CCC2)cc1)c1c(F)cccc1F [Compound 31, 2,6-Difluoro-N-[4-(2-hydroxymethyl-cyclopent-1-enyl)-phenyl]-benzamide] |
| 95.3 | CC1=C(c2ccc(NC(=O)c3c(F)cccc3F)cc2)CN(c2nc3ccccc3o2)CC1 [Compound 68, 2,6-Difluoro-N-[4-(1-benzooxazol-2-yl-4-methyl-1,2,5,6-tetrahydro-pyridin-3-yl)-phenyl]-benzamide] |
| 12 | CC1=C(c2ccc(NC(=O)c3c(F)cccc3F)cc2)CN(c2nccs2)CC1 [Compound 44, 2,6-Difluoro-N-[4-(1-thiazol-2-yl-4-methyl-1,2,5,6-tetrahydro-pyridin-3-yl)-phenyl]-benzamide] |
| 962 | CC1=C(c2ccc(NC(=O)c3c(F)cccc3F)cc2)CN(C(=O)c2cccnc2)CC1 [Compound 64] |
| 23.2 | O=C(Nc1ccc(C2=C(Cl)CCCC2)cc1)c1c(F)cccc1F [Compound 21, N-[4-(2-chloro-cyclohex-1-enyl)-phenyl]-2,6-difluoro-benzamide] |
| 138 | COc1cccc(C(=C(C)C)c2ccc(NC(=O)c3c(F)cccc3F)cc2)c1 [Compound 94, 2,6-Difluoro-N-{4-[2-methyl-1-(3-methoxy-phenyl)-propenyl]-phenyl}-benzamide] |
| > 1000 | CC1=C(c2ccc(NC(=O)c3ccncc3F)cc2)CN(CC2CC2)CC1 [Compound 69, N-[4-(1-cyclopropylmethyl-4-methyl-1,2,5,6-tetrahydro-pyridin-3-yl)-phenyl]-3-fluoro-isonicotinamide] |
| 159 | CC(C)=C(c1ccccc1)c1ccc(NC(=O)c2ccncc2C)cc1 [Compound 14, 3-Methyl-N-(4-(2-methyl-1-phenylprop-1-enyl)phenyl)-isonicotinamide] |
| 38.9 | CC1=C(c2ccc(NC(=O)c3cncnc3C)cc2)CCCC1 [Compound 27, 4-Methyl-pyrimidine-5-carboxylic acid [4-(2-methyl-cyclohex-1-enyl)-phenyl]-amide] |
| > 1000 | CC1=C(c2ccc(NC(=O)c3c(F)cccc3F)cc2)CN(Cc2ccccc2)CC1 [Compound 11, N-(4-(1-benzyl-4-methyl-1,2,5,6-tetrahydropyridin-3-yl)phenyl)-2,6-difluorobenzamide] |
| 24.6 | CCOC(=O)N1CCC(c2ccc(NC(=O)c3c(F)cccc3F)cc2)=C(C)C1 [Compound 16, Ethyl 4-(4-(2,6-difluorobenzamido)phenyl)-3-methyl-5,6-dihydropyridine-1(2H)-carboxylate] |
| 13.9 | C=C(C)[C@H]1CCC(C)=C(c2ccc(NC(=O)c3ccncc3F)nc2)C1 [Compound 5] |
| 54.6 | COc1ccc(C(=C(C)C)c2ccc(NC(=O)c3c(F)cccc3F)cc2)cc1 [Compound 93, 2,6-Difluoro-N-{4-[2-methyl-1-(4-methoxy-phenyl)-propenyl]-phenyl}-benzamide] |

Same assay, conditions: Homo sapiens, PHA 2.5 μg/mL, 20 hours, IL-2 ELISA

| SMILES | IC50 [nM] |
| --- | --- |
| CC1=C(c2ccc(NC(=O)c3c(F)cccc3F)cc2)CCNC1 [Compound 17, 2,6-Difluoro-N-(4-(5-methyl-1,2,3,6-tetrahydropyridin-4-yl)phenyl)benzamide] | > 1000 |

Same assay, conditions: PHA 2.5 μg/mL, 20 hours, IL-2 ELISA, hydrochloride

| IC50 [nM] | SMILES |
| --- | --- |
| 11 | CC1=C(c2ccc(NC(=O)c3c(F)cccc3F)cc2)CN(c2nccs2)CC1 [Compound 75, 2,6-Difluoro-N-[4-(1-thiazol-2-yl-4-methyl-1,2,5,6-tetrahydro-pyridin-3-yl)-phenyl]-benzamide, hydrochloride] |
